# B1: α-keto acid reductase: NADH-dependent α-keto acid reductase purified from Leuconostoc mesenteroides subsp. dextranicum ATCC 17072; amino acid sequence SEQ ID NO: 2 (protein)
# chain: MKIAIAGFGALGARLGVMLQAGGHEVTGIDGWPAHIAAINTKGLTVVKDNDAPQKYFVPVMPASEVTGTFDLIILLTKTPQLDRMLTDIQPIITDTTKLLVLSNGLGNIEVMAKHVSRHQILAGVTLWTSSLIKPGEIHVTGSGSIKLQAIGDADVQSIADALNQAGLNAEITPDVMTAIWHKAGINAVLNPLSVLLNANIAEFGTAGNAMDLALNILDEMKQVGASQGIKVDVSGIMTDLSQLLKPENAGNHFPSMYQDIQNGKRTEIDFLNGYFAKIGHESGIPTPFNALVTRLIHAKEDIERVKLAKQQENFEI
# modifications: Leuconostoc mesenteroides
# Tested on: not given
# Assay: not given
# Assay type: biochemical, Leuconostoc mesenteroides subsp. dextranicum
# Settings: purification steps from Leuconostoc mesenteroides subsp. dextranicum ATCC 17072, NADH-dependent
# Description: Leuconostoc mesenteroides subsp. dextranicum strain (ATCC 17072) was cultured in 1.2 L of MRS medium (Lactobacilli MRS broth, Difco Laboratories), and then cells were harvested by centrifugation. The resulting wet cells were suspended in 50 mM Tris-HCl buffer (pH 8.5) containing 0.02% 2-mercaptoethanol and 2 mM phenylmethanesulfonyl fluoride (PMSF), and crushed with a bead beater (Biospec Products, Inc.). Then, cell debris was removed by centrifugation to prepare cell-free extract. Protamine sulfate was added to the cell-free extract and the mixture was centrifuged to prepare supernatant avoid of nucleic acid. Ammonium sulfate was added to the supernatant at a final concentration of 30%. […] NADH-dependent 2-chlorophenyl glyoxylic acid-reducing activity was detected in fractions eluted with the gradient. […]
# 2-chlorophenyl glyoxylic acid-reducing activities of the enzyme obtained in Example 9 at various pHs were determined by changing the pH with the use of potassium phosphate buffer, sodium acetate buffer, and Britten and Robinson broad-range buffer. […]
# 2-chlorophenyl glyoxylic acid-reducing activities of the enzyme obtained in Example 9 were measured under standard reaction conditions at various temperatures. […]
row,Molecule,Relative activity
1,B1,3810 U/mg

# Same assay, conditions: purified enzyme, single band on SDS-PAGE
row,Molecule,Specific activity
1,B1,"3,810 U/mg"

# Tested on: α-keto acid reductase
# Assay: Dehydrogenase activity of α-keto acid reductase against 2-chloromandelic acid
# Assay type: biochemical, Leuconostoc mesenteroides subsp. dextranicum
# Settings: coenzyme NAD^+, substrate 1 mM; reduction activity of 2-chlorophenyl glyoxylic acid taken as 100
# Description: In the present invention, the dehydrogenase activity against 2-chloromandelic acid of an enzyme can be confirmed by the following assay procedure:incubate the enzyme at 30° C. in a reaction solution of 50 mM Tris-HCl buffer (pH 8.5) containing 2.5 mM NAD^+, and 1 mM 2-chloromandelic acid; and measure the increase in absorbance at 340 nm associated with the generation of NADH. 1 U is defined as an amount of enzyme that catalyzes the production of 1 μmol NADH in one minute.
# (§1) The enzyme obtained in Example 9 was incubated with various α-keto acids, ketones, ketols, etc. The activities of the reduction reaction are shown in Table 8, defined as relative activities taking the reduction activity of 2-chlorophenyl glyoxylic acid as 100.
row,Molecule,Relative activity
1,O=C(O)[C@H](O)c1ccccc1Cl [(R)-2-chloromandelic acid],0.045%
2,"O=C(O)C(O)c1ccccc1Cl (racemic) [(R,S)-2-chloromandelic acid]",0.022%

# Tested on: α-keto acid reductase
# Assay: Substrate specificity of α-keto acid reductase (reduction reaction)
# Assay type: biochemical, Leuconostoc mesenteroides subsp. dextranicum
# Settings: coenzyme NADH, substrate 1 mM; reduction activity of 2-chlorophenyl glyoxylic acid taken as 100
# Description: as §1
row,Molecule,Relative activity
1,CCCC(=O)C(=O)O [α-ketovaleric acid],3.1%
2,CCCCC(=O)C(=O)O [α-ketocaproic acid],4.3%
3,CCC(=O)C(=O)O [α-ketobutyric acid],0.4%
4,CC(C)CC(=O)C(=O)O [α-ketoisocaproic acid],14.7%
5,CC(C)C(=O)C(=O)O [α-ketoisovaleric acid],19.3%
6,O=C(O)C(=O)c1ccccc1 [phenyl glyoxylic acid],12.9%
7,O=C(O)C(=O)c1ccccc1Cl [2-chlorophenyl glyoxylic acid],100.0%
8,O=C(O)C(=O)c1cccc(Cl)c1 [3-chlorophenyl glyoxylic acid],4.5%
9,CC(C)(C)C(=O)C(=O)O [trimethyl pyruvic acid],0.1%
10,CC(=O)C(=O)O [pyruvic acid],0.0%
11,O=C(O)C(=O)Cc1ccccc1 [β-phenylpyruvic acid],0.3%
12,O=C(O)C(=O)Cc1ccccc1 [α-keto-4-phenylpyruvic acid],0.1%

# Same assay, conditions: coenzyme NADH, substrate 5 mM; reduction activity of 2-chlorophenyl glyoxylic acid taken as 100
row,Molecule,Relative activity
1,CC(C)(CO)C(=O)C(=O)O [keto pantoic acid],3.1%

# Same assay, conditions: coenzyme NADPH, substrate 1 mM; NADH reduction of 2-chlorophenyl glyoxylic acid taken as 100
row,Molecule,Relative activity
1,O=C(O)C(=O)c1ccccc1Cl [2-chlorophenyl glyoxylic acid],0.4%

# From patent US7250278B2, “α-keto acid reductase, method for producing the same, and method for producing optically active α-hydroxy acids using the same” (Daicel Chemical Industries, Ltd., priority 2002, dated 2007)
